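Five compound concentrations were applied to cells in 96-well plates for 48 hours; endpoints were derived by simple linear interpolation of the resulting dose-response curve. Abbreviation: GI50, concentration required for 50% inhibition of growth. TGI: total growth inhibition.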
Key:
Assay in all cases: NCI-60 cell line screen, 48 h
[1] = system: HS 578T breast
[2] = system: 786-0 renal
[3] = system: NCI-H522 lung
[4] = system: T-47D breast
[5] = system: HCC-2998 colon
[6] = system: SNB-19 CNS
[7] = system: U251 CNS
[8] = system: COLO 205 colon
[9] = system: RXF 393 renal
[10] = system: M14 melanoma
[11] = system: SF-268 CNS
[12] = system: RPMI-8226 leukemia
[13] = system: HCT-116 colon
[14] = system: MALME-3M melanoma
[15] = system: CCRF-CEM leukemia
[16] = system: BT-549 breast
[17] = system: SF-539 CNS
[18] = system: SNB-75 CNS
[19] = system: LOX IMVI melanoma
[20] = system: CAKI-1 renal
[21] = system: HT29 colon
[22] = system: A498 renal
[23] = system: NCI-H23 lung
[24] = system: HCT-15 colon
[25] = system: HL-60(TB) leukemia
[26] = system: UACC-257 melanoma
[27] = system: A549 NSCLC
[28] = system: OVCAR-3 ovarian
[29] = system: OVCAR-8 ovarian
[30] = system: SR leukemia
[31] = system: SK-MEL-2 melanoma
[32] = system: NCI-H226 lung
[33] = system: DU-145 prostate
[34] = system: NCI-H460 lung
[35] = system: ACHN renal
[36] = system: UO-31 renal
[37] = system: SF-295 CNS
[38] = system: UACC-62 melanoma
[39] = system: KM12 colon
[40] = system: SK-MEL-28 melanoma
[41] = system: NCI/ADR-RES ovarian
[42] = system: MDA-MB-435
[43] = system: OVCAR-4 ovarian
[44] = system: SN12C renal
[45] = system: TK-10 renal
[46] = system: PC-3 prostate
[47] = system: HOP-62 NSCLC
[48] = system: SK-OV-3 ovarian
[49] = system: MDA-MB-231 breast
[50] = system: MOLT-4 leukemia
[51] = system: K-562 leukemia
[52] = system: HOP-92 NSCLC
[53] = system: EKVX NSCLC
[54] = system: MCF7 breast
[55] = system: OVCAR-5 ovarian
[56] = system: SW-620 colon
[57] = system: IGROV1 ovarian

CC/C(=C(/c1ccc(Cl)cc1)c1ccc(OCCCN(C)C)cc1)c1ccc(OC)cc1
GI50 [1]: 7.08 µM
TGI [1]: 16.9 µM
GI50 [2]: 0.771 µM
TGI [2]: 1.46 µM
GI50 [3]: 6.56 µM
TGI [3]: 13.7 µM
GI50 [4]: 3.76 µM
TGI [4]: 12.1 µM
GI50 [5]: 8.74 µM
TGI [5]: 17.4 µM
GI50 [6]: 1.88 µM
TGI [6]: 5.78 µM
GI50 [7]: 1.66 µM
TGI [7]: 5.4 µM
GI50 [8]: 0.915 µM
TGI [8]: 1.77 µM
GI50 [9]: 1.16 µM
TGI [9]: 3.45 µM
GI50 [10]: 0.966 µM
TGI [10]: 1.92 µM
GI50 [11]: 7.6 µM
TGI [11]: 16.3 µM
GI50 [12]: 1.17 µM
TGI [12]: 2.54 µM
GI50 [13]: 0.86 µM
TGI [13]: 1.57 µM
GI50 [14]: 1.2 µM
TGI [14]: 2.67 µM
GI50 [15]: 1.79 µM
TGI [15]: 7.19 µM
GI50 [16]: 1.13 µM
TGI [16]: 2.89 µM
GI50 [17]: 4.08 µM
TGI [17]: 11.6 µM
GI50 [18]: 6.02 µM
TGI [18]: 12.3 µM
GI50 [19]: 0.868 µM
TGI [19]: 1.64 µM
GI50 [20]: 5.55 µM
TGI [20]: 12.5 µM
GI50 [21]: 1.06 µM
TGI [21]: 2.42 µM
GI50 [22]: 5.5 µM
TGI [22]: 12.1 µM
GI50 [23]: 7.43 µM
TGI [23]: 15.1 µM
GI50 [24]: 1.44 µM
TGI [24]: 5.08 µM
GI50 [25]: 1.15 µM
TGI [25]: 2.84 µM
GI50 [26]: 7.93 µM
TGI [26]: 15 µM
GI50 [27]: 3.88 µM
TGI [27]: 10.7 µM
GI50 [28]: 3.27 µM
TGI [28]: 10.5 µM
GI50 [29]: 8.05 µM
TGI [29]: 17.6 µM
GI50 [30]: 0.983 µM
TGI [30]: 2.27 µM
GI50 [31]: 8.01 µM
TGI [31]: 15.6 µM
GI50 [32]: 7.7 µM
TGI [32]: 18.3 µM
GI50 [33]: 3.48 µM
TGI [33]: 10.1 µM
GI50 [34]: 1.1 µM
TGI [34]: 2.46 µM
GI50 [35]: 5.61 µM
TGI [35]: 12.4 µM
GI50 [36]: 5.3 µM
TGI [36]: 11.8 µM
GI50 [37]: 0.918 µM
TGI [37]: 1.87 µM
GI50 [38]: 1.14 µM
TGI [38]: 2.5 µM
GI50 [39]: 2.55 µM
TGI [39]: 10.1 µM
GI50 [40]: 1.33 µM
TGI [40]: 3.84 µM
GI50 [41]: 7.27 µM
TGI [41]: 16.3 µM
GI50 [42]: 3.28 µM
TGI [42]: 9.69 µM
GI50 [43]: 5.25 µM
TGI [43]: 11.5 µM
GI50 [44]: 5.05 µM
TGI [44]: 11.8 µM
GI50 [45]: 6.23 µM
TGI [45]: 13 µM
GI50 [46]: 1.12 µM
TGI [46]: 2.71 µM
GI50 [47]: 7.76 µM
TGI [47]: 15.7 µM
GI50 [48]: 10.2 µM
TGI [48]: 17.5 µM
GI50 [49]: 1.3 µM
TGI [49]: 3.29 µM
GI50 [50]: 1.05 µM
TGI [50]: 2.53 µM
GI50 [51]: 1.06 µM
TGI [51]: 2.57 µM
GI50 [52]: 0.829 µM
TGI [52]: 1.97 µM
GI50 [53]: 5.76 µM
TGI [53]: 12.6 µM
GI50 [54]: 1.05 µM
TGI [54]: 5.89 µM
GI50 [55]: 6.54 µM
TGI [55]: 14.2 µM
GI50 [56]: 1.16 µM
TGI [56]: 2.96 µM
GI50 [57]: 3.09 µM
TGI [57]: 10.8 µM
